The record followed here is ChEMBL document CHEMBL1131847, “Opsin shift in an aldolase antibody” (Bioorg Med Chem Lett, 1999).

Active and inactive are the calls of the source. No cut-off for these calls is given here.

This assay can be described thus: Compound (1.7 x 10E-3 M) was evaluated for the formation of all-trans retinal schiff base with Lysine residue which exhibits significant Opsin shift of naturally occurring visual pigments; Active. It is filed as functional.

Take `CC1=C(/C=C/C(C)=C/C=C/C(C)=C/C=O)C(C)(C)CCC1`: the Opsin shift activity entry was “Active”.
